Values of other authors in US20080181955A1, “Natural dietary supplement and method for enhancing human libido” (priority 2007, published 2008).

Columns and labels:
[1] = oral
[2] = tested on: human endothelial NO synthase; conditions: polyphenolic constituents of red wine
[3] = molecular target: PDE-5 (Homo sapiens, UniProt O76074); conditions: resveratrol alone
[4] = tested on: nitric oxide (NO); conditions: resveratrol alone

SMILES	eNOS expression [2]	further results
CN1CC(=O)N2[C@H](c3ccc4c(c3)OCO4)c3[nH]c4ccccc4c3C[C@@H]2C1=O [Tadalafil, tadalafil]	–	half-life [1]: about 17.5 hours
O=C(O)/C=C/c1ccc(O)c(O)c1 [caffeic acid]	enhanced eNOS expression moderately	–
CCCc1nn(C)c2c(=O)[nH]c(-c3cc(S(=O)(=O)N4CCN(C)CC4)ccc3OCC)nc12 [Sildenafil, sildenafil]	–	half-life [1]: about 4 hours
O=C(O)c1ccccc1 [benzoic acid]	enhanced eNOS expression moderately	–
Oc1ccc(C=Cc2cc(O)cc(O)c2)cc1 [resveratrol]	–	effect on PDE-5 [3]: no recognizable effect on PDE-5; release of NO [4]: releases NO
O=C(O)/C=C/c1ccc(O)cc1 [p-coumaric acid]	enhanced eNOS expression moderately	–
Oc1ccc(/C=C/c2cc(O)cc(O)c2)cc1 [trans-resveratrol]	most efficacious stimulator of eNOS expression	–
COc1cc(C(=O)O)ccc1O [vanilla acid]	enhanced eNOS expression moderately	–
